In data set [1] the test system is CMV. The data set can be described thus: Reduction of CPE in CMV-infected MRC5 cell monolayer cultures (Tables 4 and 5). Particulars: Human betaherpesvirus 5, MRC5, read-out: Reduction (%) of CPE by D-2'-CDG at Time of Virus Harvest. Format: cell-based. How it is done: (§1) The effectiveness of racemic 2'-CdG and of D-2'-CdG on CMV yields in MRC5 cell monolayer cultures was determined by a plaque assay with the results set forth in Tables 4 and 5:
(§2) ^a Drug treatment began immediately following the virus adsorption
(§3) ^a Drug treatment began immediately following the 1 1/2 hour

Data set [2] concerns CMV. The data set can be described thus: CMV yields in MRC5 cell monolayer cultures by plaque assay (Tables 4 and 5). It counts as cell-based. Particulars: for CMV Yield: virus control 1.1 × 10^5; for CMV Yield (log10): virus control 5.1. How it is done:
as §1, §2, §3

For a further data set, the system named is MRC5 cells. Briefly: Drug cytotoxicity (gross morphology) in MRC5 cell monolayer cultures (Tables 4 and 5). It counts as cell-based, human. The protocol:
as §1, §2, §3

Data set [3] has as its system CMV. Briefly: MIC50 against CMV in MRC5 cells. It counts as cell-based.
The subject of data set [4] is CMV. Briefly: ED50 antiviral efficacy against CMV in human foreskin fibroblast cells. It counts as cell-based. Particulars: Human betaherpesvirus 5, read-out: ED50 (median dose at which 50% antiviral efficacy against CMV is produced). How it is done:
The ED50 value (median dose at which 50% antiviral efficacy against CMV is produced) was 0.06 μg/mL for D-2'-CdG and 0.20 for DHPG in human foreskin fibroblast cells.

The test system of data set [5] is human CMV. The data set can be described thus: Intravitreal human CMV infection in New Zealand white rabbits, intravitreal treatment. It counts as in vivo. Particulars: 100 μg in 100 μl intravitreal, 48-hour intervals from day 4. From the text: The symptoms included vitritis, iritis, retinal pathology (micro hemorrhages and focal necrosis of the retinal
surface), corneal stromal haze and neovascularization, and corneal endothelial pigmented precipitates. […] The intravitreal route offers some significant advantages for intraocular infections including: 1) delivery of maximal concentrations of drug to the desired site of action; 2) increased potential for sustained release (i.e. longer half-life, T1/2) of the drug; and 3) reduced potential for systemic toxicity.

The test system of data set [6] is human CMV. Briefly: Intravitreal human CMV infection in pigmented rabbits, intravitreal treatment. Format: in vivo. Also noted: key to retinal pathology level: 1-2+: focal hemmorhages and development of localized retinal necrosis; key to Vitritis scores: 1-2+: mild; key to vitritis: 2+: mild vitritis. How it is done:
Animal models for human CMV disease were prepared by inoculating human CMV by intravitreal injection into pigmented rabbits. The animals developed in 3-4 days post inoculation a mild to moderate vitritis, focal retinal microhemorrhages, and localized retinal necrosis.
Dosages of 2'-CdG of various amounts in 100 μl of sterile water were injected into rabbit models beginning on day 3 post inoculation and repeated on day 5 and day 7N.
Development and resolution of HCMV intraocular disease in the 80 μg therapy group was similar to disease development in the 100 μg therapy group as described below.
Seven pigmented rabbits were infected with human CMV by intravitreal injection. Beginning on day 3 PI, these animals received 3 successive injections of 100 μg 2'CdG in 50 μl on day 3, 4, and 5 PI. […] Vitritis scores in these animals were 1-2+ (mild) and retinal pathology was reduced to 1-2+ level (focal hemmorhages and development of localized retinal necrosis). […] Initial virus recovery assays indicate that human CMV titers were reduced to 0 or 1 log by day 2 post therapy.

For data set [7], the system named is CMV. Briefly: Intravitreal injection for a week, tolerability and antiviral effect. It counts as in vivo. Conditions: 100 μg/kg every 48 hours intravitreally for a week. An excerpt: Effective dosages may be administered also in sustained release dosage form.
Data set [8] concerns human CMV. Briefly: Intravitreal human CMV infection in pigmented rabbits, intravitreal treatment. It counts as in vivo. On the set-up: key to vitritis, maximum development: 1-2+: mild. Particulars: 80 μl (so in the source) of 2'-CdG.
The mark [9] stands for this setting: 40 μg per 100 μl injection, intravitreal.
Where [10] appears, read: 100 μg in 50 μl daily, day 3, 4 and 5 PI.

Converted amounts (≈) assume the structure as drawn.

In the case of `Nc1nc2c(ncn2[C@@H]2C[C@H](CO)[C@@H](O)C2)c(=O)[nH]1` [D-2'-CdG], in the data set with CMV [1] (Table 5, 0.1 μM), the inhibition at 0.1 µM was 0%. Also, the inhibition at 0.32 µM with CMV [1] (Table 5, 0.32 μM) stood at 0%. Further, the inhibition at 1 µM with CMV [1] (Table 5, 1.0 μM) worked out at 10%. Besides, the inhibition at 3.2 µM with CMV [1] (Table 5, 3.2 μM) was determined as 10%. For the same molecule, the inhibition at 10 µM in the data set with CMV [1] (Table 5, 10 μM) came out at 25%. Also, the inhibition at 32 µM with CMV [1] (Table 5, 32 μM) was determined as 50%. In the data set on CMV [1] (Table 5, 100 μM), the inhibition at 100 µM was 50%. Besides, the “CMV Yield” value with CMV [2] (Table 5, 0.1 μM) is on record as 3.8 × 10^4 PFU/mL; in the data set with CMV [2] (Table 5, 0.32 μM) it was 1.4 × 10^4 PFU/mL; in the data set with CMV [2] (Table 5, 1.0 μM) it was 5.4 × 10^3 PFU/mL; in the data set with CMV [2] (Table 5, 3.2 μM) it was 8.4 × 10^2 PFU/mL; in the data set with CMV [2] (Table 5, 10 μM), 2 × 10^1 PFU/mL; in the data set with CMV [2] (Table 5, 32 μM), 0 PFU/mL. In addition, in the data set on CMV [2] (Table 5, 100 μM), the “CMV Yield” value is 0 PFU/mL. Moreover, the “CMV Yield (log10)” value in the data set with CMV [2] (Table 5, 0.1 μM) is given as 4.6 log10 PFU/mL; in the data set on CMV [2] (Table 5, 0.32 μM), 4.1 log10 PFU/mL; in the data set with CMV [2] (Table 5, 1.0 μM), 3.7 log10 PFU/mL; in the data set on CMV [2] (Table 5, 3.2 μM), 2.9 log10 PFU/mL; with CMV [2] (Table 5, 10 μM) it was 1.3 log10 PFU/mL. Moreover, the “Drug Cytotoxicity (gross morphology)” value in the data set with MRC5 cells (Table 5, 0.1 μM) is 0; in the data set with MRC5 cells (Table 5, 0.32 μM) it was 0; in the data set on MRC5 cells (Table 5, 1.0 μM), 0; with MRC5 cells (Table 5, 3.2 μM), 0; in the data set on MRC5 cells (Table 5, 10 μM) it was 0; with MRC5 cells (Table 5, 32 μM), “v. sl. toxicity”. For the same molecule, the “Drug Cytotoxicity (gross morphology)” value with MRC5 cells (Table 5, 100 μM) is on record as “slight toxicity”; with MRC5 cells (Table 5, 320 μM) it was “toxic”. For the same molecule, the IC50 in the data set with CMV [3] (Human betaherpesvirus 5) is less than 0.029 µg/mL. In addition, in the data set with CMV [3] (same conditions), the “MIC50 relative to the MIC50 of DL-2'-CdG” value is “about half (or less)”. Moreover, in the data set with CMV [4], the EC50 worked out at 0.06 µg/mL (≈ 0.226 µM). The “clinical outcome compared with ganciclovir (DHPG)” value with human CMV [5] is recorded as “clinically better than treatment with ganciclovir (DHPG)”. For the same molecule, the “development of retinal pathology, severity of vitritis and iritis vs placebo” value in the data set on human CMV [5] was “effective in reducing the development of retinal pathology and in reducing the severity of the vitritis and iritis”.

As to `Nc1nc2c(ncn2[C@@H]2C[C@H](CO)[C@@H](O)C2)c(=O)[nH]1` [2'-CdG], in the data set on human CMV [6] (setting [9]), the “Retinal necrosis at sacrifice” value is reported as “evident in all animals at sacrifice”, the retinal hemorrhages result was “focal retinal hemorrhages” and the vitritis is given as 2+. For the same molecule, the “controlling the development of disease” value in the data set with human CMV [6] (40 μg per 100 μl injection, intravitreal, from day 3 post inoculation) was “moderately effective in controlling the development of disease”. Further, in the data set on human CMV [6] (setting [10]), the Vitritis scores is 1-2+; the “human CMV-induced vitritis and retinal pathology (preliminary)” value was “effective in reducing the development of human CMV-induced vitritis and retinal pathology”; the “progressive disease by day 7 post inoculation” value was “had not developed the progressive disease”; the retinal pathology level is 1-2+. In addition, the progressive disease result with human CMV [6] (2'CdG at two day intervals) is recorded as “progressive disease that is observed”. The “moderate to severe retinal necrosis and detachment” value with human CMV [6] (lower concentration 2'CdG therapies) is “observed in the lower concentration 2'CdG therapies”. Besides, in the data set on CMV [7], the antiviral effectiveness entry is “antivirally effective” and the tolerability result was “well tolerated”. Also, in the data set on human CMV [8] (intravitreal), the “development of vitritis and of retinal pathology” value was “effective in reducing the development of vitritis (1-2+ maximum development) and in altering the observed development of retinal pathology”; the “vitritis, maximum development” value was 1-2+. For the same molecule, the “Retinal blood vessel engorgement and focal microhemorrhages” value in the data set on human CMV [8] (days 3, 4 and 5 post inoculation) is “Retinal blood vessel engorgement was evident and focal microhemorrhages were present”.

By IC50 is commonly meant the concentration at which inhibition is half-maximal.

Source of the values: US6080746A, “Methods and compositions for the prophylaxis and treatment of cytomegalovirus infections” (priority 1991, dated 2000).
